In ChEMBL document CHEMBL1926546, “New N-methylpiperazinyl derivatives of bicyclic antiprotozoal compounds” (Eur J Med Chem, 2012):
The source made the active and inactive calls. The calls are words filed in the database; no cut-off is given here.

What was measured:
[1] = test system: Trypanosoma brucei rhodesiense; experiment: Antitrypanosomal activity against Trypanosoma brucei rhodesiense STIB900 bloodstream forms after 72 hrs by serial dilution Alamar blue assay; type: functional, organism-based; settings: STIB900, 72 h
[2] = Selectivity index, ratio of IC50 for rat L6 cells to IC50 for Trypanosoma brucei rhodesiense STIB900; type: toxicity, cell-based; settings: L6 cells (versus Trypanosoma brucei rhodesiense STIB900), read-out: Ratio IC50
L6 = experiment: Cytotoxicity against rat L6 cells; type: cell-based
Plasmodium falciparum = experiment: Antiplasmodial activity against chloroquine and pyrimethamine-resistant Plasmodium falciparum K1 assessed as [3H]hypoxanthine incorporation after 48 hrs by liquid scintillation counter; type: functional, organism-based
[3] = Selectivity index, ratio of IC50 for rat L6 cells to IC50 for chloroquine and pyrimethamine-resistant Plasmodium falciparum K1; type: toxicity, cell-based; settings: L6 cells (versus Plasmodium falciparum K1), read-out: Ratio IC50
[4] = test system: Trypanosoma brucei brucei; experiment: […] activity against Trypanosoma brucei brucei STIB 795 infected in NMRI mouse assessed as reduction in parasitemia compound administered on day 3 and day 6 post infection measured after 24 hrs; type: functional, organism-based
[5] = test system: Trypanosoma brucei brucei; experiment: […] activity against Trypanosoma brucei brucei STIB 795 infected in NMRI mouse assessed as reduction in parasitemia compound administered on day 3 and day 6 post infection measured on day 10; type: functional, organism-based
Plasmodium berghei [6] = experiment: Antimalarial activity against Plasmodium berghei ANKA infected in albino mouse assessed as inhibition of parasitemia at 30 to 50 mg/kg, ip administered as single dose post-infection measured after 24 hrs by Giemsa staining-based microscopy; type: functional; settings: dose mg/kg 30-50; route intraperitoneal
Plasmodium berghei [7] = experiment: Antimalarial activity against Plasmodium berghei ANKA infected in albino mouse assessed as prolongation of survival time at 30 to 50 mg/kg, ip administered as single dose post infection (reference value: 6.7 days); type: functional; settings: dose mg/kg 30-50; route intraperitoneal

With `c1ccc(C2CC3(N4CCCCC4)CCN(CCCN4CCCCC4)C2C(c2ccccc2)C3)cc1` (stereo not drawn) the IC50 [1] was 18.4 µM and the selectivity ratio [2] was 7.5.

Work on `CN1CCN(CCCC(=O)OC2CC3(N4CCCCC4)CC(c4ccccc4)C2C(c2ccccc2)C3)CC1` (racemic) yielded an IC50 [1] of 0.16 µM, an IC50 (L6) of 22.3 µM and a selectivity ratio [2] of 139. For the same compound, the IC50 (Plasmodium falciparum) was 0.05 µM and the selectivity ratio [3] was 446.

With `CN1CCN(C23CCNC(C(c4ccccc4)C2)C(c2ccccc2)C3)CC1` (racemic) the IC50 [1] was 0.38 µM, the IC50 (L6) was 96.9 µM and the selectivity ratio [2] was 255. The IC50 (Plasmodium falciparum) was 1.5 µM and the selectivity ratio [3] was 64.6.

Work on `CN1CCN(CCN2CCC3(N(C)C)CC(c4ccccc4)C2C(c2ccccc2)C3)CC1` (racemic) yielded an IC50 [1] of 13.5 µM, an IC50 (L6) of 70.3 µM and a selectivity ratio [2] of 5.19. For the same compound, the IC50 (Plasmodium falciparum) was 0.52 µM and the selectivity ratio [3] was 135.

Compound `CN1CCN(CCCN2CCC3(N4CCCCC4)CC(c4ccccc4)C2C(c2ccccc2)C3)CC1` (racemic) has an IC50 [1] of 17.6 µM, an IC50 (L6) of 62.5 µM and a selectivity ratio [2] of 3.55. It also gave an IC50 (Plasmodium falciparum) of 0.11 µM and a selectivity ratio [3] of 568.

`CN1CCN(CCN2CCC3(N4CCCCC4)CC(c4ccccc4)C2C(c2ccccc2)C3)CC1` (racemic) gave an IC50 [1] of 43.7 µM, an IC50 (L6) of 127 µM and a selectivity ratio [2] of 2.91. The IC50 (Plasmodium falciparum) was 0.3 µM and the selectivity ratio [3] was 424.

In the case of `C[C@@H]1CC[C@H]2[C@@H](C)C(=O)O[C@@H]3O[C@@]4(C)CC[C@@H]1[C@]32OO4` [ARTEMISININ], the IC50 (Plasmodium falciparum) is reported as 0.0064 µM.

Compound `CN1CCN(CCC(=O)OC2CC3(N4CCCCC4)CC(c4ccccc4)C2C(c2ccccc2)C3)CC1` (racemic) has an IC50 [1] of 0.087 µM, an IC50 (L6) of 23.5 µM and a selectivity ratio [2] of 271. For the same compound, the IC50 (Plasmodium falciparum) was 0.06 µM, the selectivity ratio [3] was 392 and the Activity [4] was “Active”. For the same compound, the Activity [5] was “Active”.

Compound `CN1CCN(CCCN2CCC3(N4CCN(C)CC4)CC(c4ccccc4)C2C(c2ccccc2)C3)CC1` (racemic) has an IC50 [1] of 6.67 µM, an IC50 (L6) of 47.8 µM and a selectivity ratio [2] of 7.16. For the same compound, the IC50 (Plasmodium falciparum) was 0.25 µM and the selectivity ratio [3] was 191.

For `CN1CCN(CCC(=O)NC2CC3(N4CCN(C)CC4)CC(c4ccccc4)C2C(c2ccccc2)C3)CC1` (racemic), the IC50 [1] was 3.3 µM, the IC50 (L6) was 67.9 µM and the selectivity ratio [2] was 20.6. For the same compound, the IC50 (Plasmodium falciparum) was 0.55 µM and the selectivity ratio [3] was 123.

With `CN1CCN(CC(=O)NC2CC3(N4CCN(C)CC4)CC(c4ccccc4)C2C(c2ccccc2)C3)CC1` (racemic) the IC50 [1] was 2.06 µM, the IC50 (L6) was 42.1 µM and the selectivity ratio [2] was 20.4. For the same compound, the IC50 (Plasmodium falciparum) was 0.62 µM and the selectivity ratio [3] was 67.9.

Compound `CN1CCN(CCC(=O)OC2CC3(N4CCCC4)CC(c4ccccc4)C2C(c2ccccc2)C3)CC1` (racemic) has an IC50 [1] of 0.45 µM, an IC50 (L6) of 21.3 µM and a selectivity ratio [2] of 47.4. For the same compound, the IC50 (Plasmodium falciparum) was 0.26 µM and the selectivity ratio [3] was 82.

With `CN1CCN(CCCC(=O)OC2CC3(N(C)C)CC(c4ccccc4)C2C(c2ccccc2)C3)CC1` (racemic) the IC50 [1] was 0.08 µM, the IC50 (L6) was 19.9 µM and the selectivity ratio [2] was 248. For the same compound, the IC50 (Plasmodium falciparum) was 0.24 µM and the selectivity ratio [3] was 82.7.

Work on `CN1CCN(CCCN2CCC3(N4CCCC4)CC(c4ccccc4)C2C(c2ccccc2)C3)CC1` (racemic) yielded an IC50 [1] of 6.99 µM, an IC50 (L6) of 27.4 µM and a selectivity ratio [2] of 3.93. For the same compound, the IC50 (Plasmodium falciparum) was 0.27 µM, the selectivity ratio [3] was 102 and the “inhibition (INH)” value (Plasmodium berghei [6]) was 39%. The MST (Plasmodium berghei [7]) was 7.7 days.

Work on `CN1CCN(CCC(=O)N2CCC3(N4CCN(C)CC4)CC(c4ccccc4)C2C(c2ccccc2)C3)CC1` (racemic) yielded an IC50 [1] of 3.62 µM, an IC50 (L6) of 161 µM and a selectivity ratio [2] of 44.5. The IC50 (Plasmodium falciparum) was 1.95 µM and the selectivity ratio [3] was 82.5.

With `CCN(CC)CCC(=O)OC1CC2(N(C)C)CC(c3ccccc3)C1C(c1ccccc1)C2` (stereo not drawn) the selectivity ratio [2] was 215 and the selectivity ratio [3] was 54.9.

In the case of `CN1CCN(CCCC(=O)OC2CC3(N4CCCC4)CC(c4ccccc4)C2C(c2ccccc2)C3)CC1` (racemic), the IC50 [1] is reported as 0.15 µM, the IC50 (L6) is reported as 10.2 µM and the selectivity ratio [2] is reported as 67.7. For the same compound, the IC50 (Plasmodium falciparum) was 0.12 µM and the selectivity ratio [3] was 84.7.

`Nc1nc(N)nc(Nc2ccc([As]3SCC(CO)S3)cc2)n1` (stereo not drawn) [MELARSOPROL] showed an IC50 [1] of 0.009 µM and a selectivity ratio [2] of 1940.

Work on `CN1CCN(CCN2CCC3(N4CCCC4)CC(c4ccccc4)C2C(c2ccccc2)C3)CC1` (racemic) yielded an IC50 [1] of 6.35 µM, an IC50 (L6) of 50.3 µM and a selectivity ratio [2] of 7.93. The IC50 (Plasmodium falciparum) was 0.023 µM, the selectivity ratio [3] was 2190 and the “inhibition (INH)” value (Plasmodium berghei [6]) was 39%. The MST (Plasmodium berghei [7]) was 8.3 days.

For `CN1CCN(CCC(=O)OC2CC3(N(C)C)CC(c4ccccc4)C2C(c2ccccc2)C3)CC1` (racemic), the IC50 [1] was 0.21 µM, the IC50 (L6) was 31.1 µM and the selectivity ratio [2] was 148. It also gave an IC50 (Plasmodium falciparum) of 0.46 µM and a selectivity ratio [3] of 67.7.

For `CN1CCN(CCCN2CCC3(N(C)C)CC(c4ccccc4)C2C(c2ccccc2)C3)CC1` (racemic), the IC50 [1] was 11.5 µM, the IC50 (L6) was 54.5 µM and the selectivity ratio [2] was 4.74. The IC50 (Plasmodium falciparum) was 0.51 µM and the selectivity ratio [3] was 107.
